Measured values as given in US20070043034A1, “Chlorine Ion Uptake Modulators and Uses Thereof” (priority 2005, published 2007).

What was measured:
NKCCl = biological target: T1, NKCCl (Rattus norvegicus, UniProt E9PTX9); test: Reversal potential of stimulus-evoked GABAA-PSCs in immature CA3 pyramidal cells; format: cell-based
T1 construct: gramicidin perforated patch clamped CA1 pyramidal neuron in an acute hippocampal slice from a P5 rat; from tissue; host or cells: acute hippocampal slices of P3-P6 male Sprague-Dawley rats; CA1 pyramidal neurons
T1 sequence (E9PTX9 1-1203): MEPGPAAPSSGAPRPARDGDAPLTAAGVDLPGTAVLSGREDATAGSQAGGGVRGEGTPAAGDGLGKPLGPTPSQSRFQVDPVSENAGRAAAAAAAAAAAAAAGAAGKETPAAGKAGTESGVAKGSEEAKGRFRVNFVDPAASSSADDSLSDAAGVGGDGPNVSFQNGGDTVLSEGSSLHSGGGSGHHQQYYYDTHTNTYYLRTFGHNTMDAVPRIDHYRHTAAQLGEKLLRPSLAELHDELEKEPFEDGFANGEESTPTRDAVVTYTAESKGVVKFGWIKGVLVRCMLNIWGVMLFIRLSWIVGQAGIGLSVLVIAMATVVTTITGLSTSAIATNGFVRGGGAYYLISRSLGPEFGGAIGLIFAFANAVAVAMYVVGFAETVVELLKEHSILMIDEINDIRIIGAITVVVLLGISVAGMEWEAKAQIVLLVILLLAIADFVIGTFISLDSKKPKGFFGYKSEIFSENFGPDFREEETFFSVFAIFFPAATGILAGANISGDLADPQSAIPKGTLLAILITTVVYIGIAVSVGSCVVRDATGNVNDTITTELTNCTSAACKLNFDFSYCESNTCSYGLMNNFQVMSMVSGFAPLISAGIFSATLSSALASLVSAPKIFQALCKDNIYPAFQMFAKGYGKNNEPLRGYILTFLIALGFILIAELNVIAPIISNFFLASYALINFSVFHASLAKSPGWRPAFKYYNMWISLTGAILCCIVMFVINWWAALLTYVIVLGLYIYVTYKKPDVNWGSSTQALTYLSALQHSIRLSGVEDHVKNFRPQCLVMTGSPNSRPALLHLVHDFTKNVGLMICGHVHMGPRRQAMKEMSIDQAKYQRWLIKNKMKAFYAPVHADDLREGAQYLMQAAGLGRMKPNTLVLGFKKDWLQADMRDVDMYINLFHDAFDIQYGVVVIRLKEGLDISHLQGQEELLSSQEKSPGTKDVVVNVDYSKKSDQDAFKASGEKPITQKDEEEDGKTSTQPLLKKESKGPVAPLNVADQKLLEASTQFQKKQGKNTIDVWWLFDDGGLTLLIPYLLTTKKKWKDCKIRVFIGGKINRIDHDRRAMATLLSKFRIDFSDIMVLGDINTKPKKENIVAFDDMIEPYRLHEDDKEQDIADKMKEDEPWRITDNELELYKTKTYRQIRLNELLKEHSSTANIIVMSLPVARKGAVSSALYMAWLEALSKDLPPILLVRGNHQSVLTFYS
Method: Cell cultures, such as pyramidal cells, can be used to examine the effects of a pharmaceutical composition of the present invention on GABAA receptor activation. In one exemplary method, selective inhibition of NKCCl by a pharmaceutical composition of the present invention, bumetanide, was tested to examine the relationship between chloride accumulation in neurons, GABAA receptor activation and NKCC1. Specifically, the reversal potential of electrical stimulus evoked GABAA-receptor mediated post-synaptic currents (GABAA-PSCS) in immature P4-P6 CA3 pyramidal cells of the hippocampus was examined in the presence or absence of bumetanide. Electrical stimulation of the stratum radiatum (7 V, 30 us duration) evoked in control conditions a synaptic response that reversed at −42.4±1.7 mV (n=6) and was close to the reversal potential of spontaneous GABAA-PSCS (−46.1±0.7 mV; n=6, p=0.07). Examples of stimulus evoked postsynaptic currents at different holding potentials for individual pyramidal cell and corresponded current-voltage (I-V) relationship are shown in FIG. 1A. […] In presence of bumetanide, stimulus evoked GABAA-PSCs reversed at −46.1±1.9 mV (n=6, p=0.17). […] This in vitro system can be used to test any of the pharmaceutical compositions of the present invention for modulation of GABAA receptor activation. […]

[1] = test system: spontaneous network activity in hippocampal sections; test: Spontaneous network activity in P4-8 hippocampal sections (whole-cell and extracellular field recordings); format: cell-based, rat
Method: In another exemplary in vitro method, simultaneous whole-cell voltage-clamp recordings of CA3 pyramidal cells and extracellular field potential recordings in CA3 pyramidal cell layer were performed to analyze the effects of one of the pharmaceutical compositions of the present invention, bumetanide, on spontaneous network activity in the postnatal (P)4-8 hippocampal sections. Spontaneous neuronal network activity is characterized by large polysynaptic currents mediated by activation of GABAA-receptors and synchronous recurrent population bursts, associated with a barrage of high frequency action potentials from multiple cells (FIG. 1C). […] Synchronous network activity reappeared 10-15 min after removal of bumetanide by washing.
In one exemplary method, experimental procedures were carried out on hippocampal slices of postnatal days 5 (P5) to P12 male Wistar rats. Animals were anaesthetized and decapitated and hippocampal slices were prepared by known methods. […]
From the example outlined above, extracellular field potentials were recorded and microelectrodes known in the art were used for simultaneous recordings of multiple unit activity (e.g. MUA; 500 Hz high-pass filter), population field activity in EEG band (1-100 Hz), and fast ripple oscillations (200-600 Hz).).

shift in reversal potential of GABAA-PSCs (NKCCl; bumetanide 10 μM application): negative shift | reversal potential of stimulus evoked GABAA-PSCs (NKCCl; bumetanide 10 μM, P4-P6 CA3 pyramidal cells, n=6, p=0.17, control −42.4±1.7 mV): −46.1±1.9 mV
Compound: CCCCNc1cc(C(=O)O)cc(S(N)(=O)=O)c1Oc1ccccc1 [bumetanide, 3-(aminosulfonyl)-5-(butylamino)-4-phenoxybenzoic acid]
time until synchronous network activity reappeared after removal by washing ([1]; after bumetanide 10 uM): 10 to 15 min | synchronous bursts of action potentials ([1]; bath application 10 uM, P4-8 hippocampal sections, n=10): rapidly depressed
